Laboratory results from patent publication US9650369B2, “Anti-migration and anti-invasion thiazole analogs for treatment of cellular proliferative disease” (XAVIER UNIVERSITY OF LOUISIANA, priority 2012, dated 2017).
pIC50: −log10 of the molar value. “Also recorded” adds a separate entry of the source. Like-named read-outs stand apart in the source and are kept apart here.

Columns and labels:
Assay type in all cases: cell-based
[1] = tested on: MDA-MB-231 breast cancer cells; test: transwell migration assay, MDA-MB-231; conditions: for inhibition at 10 µM: MDA-MB-231, MDA-MB-231, 10 μM, read-out: inhibition of cell migration; for pIC50: transwell migration of MDA-MB-231 cells, read-out: IC50 (anti-migration)
Procedure: (§1) To determine if these analogs have anti-migration and anti-invasion activities in different cancer cell lines, transwell migration assays were performed using MDA-MB-231 breast cancer cells (FIG. 3) and HeLa cells (FIG. 5) for all synthetic analogs. […] Next, clonogenic assays were performed on the breast cancer cells treated with the compounds to rule out any indirect effect on cell migration due to cytotoxicity (FIG. 4). MDA-MB-231 cells were allowed to grow for 14 days in six-well plates in the presence or absence of the synthetic compounds at 10 μM.
To determine the effects of the synthesized mackroketone analogs on cancer cell migration, we performed transwell migration assay on each compound using an invasive and metastatic breast cancer cell line, MDA-MB-231. When cells were seeded at a density of 2.5×10^4 in media free of serum in the upper chamber but containing 5% FBS in the lower chamber, their ability to migrate in the presence and absence of 10 μM analogs were measured by counting the total number of cells in the lower chamber after 24 hrs.

HeLa cells [2] = test: colony formation, HeLa
From the text: (§2) Based on the potent effects of synthetic thiazole analogs in blocking migration of MDA-MB-231 cells, ten analogs with high anti-migration activity but low or negligible cytotoxicity were selected to test their anti-migration activity in another metastatic cell line, HeLa. […] On the other hand, the analog 5i was not toxic to 231 cells, but it suppressed the clonogenic capability of HeLa cells by 45%. […] Thus 5k may be further evaluated for its potential as an anti-migration and anti-metastatic agent.

[3] = tested on: MDA-MB-231 breast cancer cells; test: clonogenic assay (colony formation), MDA-MB-231; conditions: for activity at 10 µM / inhibition at 10 µM: Homo sapiens, 336 h; for activity at 10 µM: read-out: Effect on cell proliferation (colony formation) (% of vehicle control); for inhibition at 10 µM / cytotoxicity (in words): MDA-MB-231, 10 μM, two weeks
Procedure: as §1
To rule out any indirect effect on cell migration due to cytotoxicity, clonogenic assays were performed on the breast cancer cells treated with the compounds. MDA-MB-231 cells were allowed to grow for 14 days in six-well plates in the presence or absence of the synthetic compounds at 10 μM. […] For example, analog 3g blocked both cell migration (81.4%) and colony formation (42.7%). For these analogs cytotoxity may have partially contributed to their overall anti-migration effect. The cell toxicity data for all analogs are listed in Table 1 along with anti-migration data for comparison.

[4] = tested on: f-actin in membrane protrusions of MDA-MB-231 cells; test: f-actin staining of actin-rich membrane protrusions (fluorescent microscopy); conditions: MDA-MB-231, 10 μM, serum stimulated 2 hours; p<0.01
From the text: An essential component of migration is protrusion of the cell membrane, which is driven by actin polymerization. […] See Chen, L.; Yang. S.; Jakoncic, J.; Zhang, J. J.; Huang, X. Y. Migrastatin analogues target fascin to block tumour metastasis. Nature 2010; 464:1062-1066. Erratum in: Nature. 2011; 476:240; Hashimoto, Y., D. J. Kim, and J. C. Adams. The roles of fascins in health and disease. J. Pathol. 2011; 224:289-300; and Jayo, A., and M. Parsons. Fascin: a key regulator of cytoskeletal dynamics. Int. J. Biochem. Cell Biol. 2010; 42:1614-1617. […] See Chen, 2010. Thus, we tested the hypothesis that compound 5k interferes with f-actin in membrane protrusions associated with cell motility. MDA-MB-231 cells were serum starved −/+10 μM 5k, then stimulated with serum for 2 hours to induce actin-rich membrane protrusions, which were analyzed by fluorescent microscopy.

[5] = tested on: fascin in MDA-MB-231 cells; test: fascin localization by immunofluorescence microscopy
From the text: Co-localization of f-actin and fascin appears as white pixels.
To further probe for a possible role of fascin in the reduction of actin-rich membrane protrusions, we determined the localization of fascin by immunofluorescence microscopy.

HeLa cells [6] = test: transwell migration, HeLa; conditions: Homo sapiens
Procedure: as §1, §2

[7] = tested on: MDA-MB-231 breast cancer cells; test: matrigel invasion assay, MDA-MB-231; conditions: MDA-MB-231, matrigel
From the text: To determine if the synthetic thiazole analogs block invasion of metastatic cancer cells we performed matrigel invasion assays of MDA-MB-231 cells treated with 10 selected analogs.

[8] = tested on: A549 non small cell lung cancer cells; test: migration assay, A549; conditions: A549, 10 μM
[9] = MDA-MB-231, 10 μM analogs, 14 days

Structure (SMILES) | pIC50 ([1]; Homo sapiens) | pIC50 [1] | inhibition at 10 µM ([1]; Homo sapiens) [%] | cytotoxicity (in words) (HeLa cells [2]) | activity at 10 µM [3, 9] [%] | inhibition at 10 µM [3] [%] | cytotoxicity (in words) [3] | suppression of clonogenic capability (HeLa cells [2]) [%] | Effect on cell proliferation (colony formation) (% of vehicle control) [3, 9] [%] | reduction in f-actin intensity [4] [%] | localization of fascin in actin-rich membrane regions (in words) [5] | inhibition at 10 µM (HeLa cells [6]) [%] | blocking cell invasion (in words) [7] | loss of migratory capacity [8] [%]
CCCCCCCCCCCC(=O)Nc1nc(-c2ccccc2)cs1 [Compound 3n, N-(4-Phenylthiazol-2-yl)dodecanamide] | 6.00 |  | > 50 | no apparent cytotoxicity | 71.5 | 30 | no apparent cell toxicity |  |  |  |  |  |  | 
CCn1c(-c2ccccc2)csc1=NC(=O)c1cccs1 [Compound 5i, N-(3-Ethyl-4-phenylthiazol-2(3H)-yliene)thiophene-2-carboxamide] |  | 5.68 |  |  |  |  | not toxic | 45 | 97.7 |  |  |  |  | 
CN(C(=O)c1ccccc1)c1nc(-c2ccccc2)cs1 [Compound 4e, N-Methyl-N-(4-phenylthiazol-2-yl)benzamide] | 6.44 |  | > 50 |  | 123 |  | no apparent cell toxicity |  |  |  |  |  |  | 
O=C(Nc1nc(-c2ccccc2)cs1)c1ccncc1 [Compound 3i, N-(4-Phenylthiazol-2-yl)isonicotinamide] | 5.54 |  |  |  | 95.5 |  |  |  |  |  |  |  |  | 

Continued, in another order:

pIC50 ([1]; Homo sapiens) | pIC50 [1] | Structure (SMILES) | inhibition at 10 µM ([1]; Homo sapiens) [%] | cytotoxicity (in words) (HeLa cells [2]) | activity at 10 µM [3, 9] [%] | inhibition at 10 µM [3] [%] | cytotoxicity (in words) [3] | suppression of clonogenic capability (HeLa cells [2]) [%] | Effect on cell proliferation (colony formation) (% of vehicle control) [3, 9] [%] | reduction in f-actin intensity [4] [%] | localization of fascin in actin-rich membrane regions (in words) [5] | inhibition at 10 µM (HeLa cells [6]) [%] | blocking cell invasion (in words) [7] | loss of migratory capacity [8] [%]
6.72 |  | Cn1c(-c2ccccc2)cs/c1=N/C(=O)c1ccccc1 [Compound 5j, N-(3-Methyl-4-phenylthiazol-2(3H)-yliene)benzamide] |  | strong inhibitor of cell proliferation | 25.2 | 75 | strong inhibitor of cell proliferation |  |  |  |  |  |  | 
6.75 |  | Cc1ccc(-c2cs/c(=N/C(=O)c3ccccc3)n2C)c(C)c1 [Compound 5k, N-(4-(2,4-Dimethylphenyl)-3-methylthiazol-2(3H)-yliene)-benzamide] |  | no apparent cytotoxity | 121 |  | no apparent cell toxicity; also recorded: no apparent cytotoxity |  |  | 55 | notably missing from the actin-rich membrane regions | > 85 | most potent compound in blocking cell invasion | ~80
